Measured values from BindingDB's records for patent US20250042862 (Shanghai Institute of Materia Medica, 2025).

Target: Lysine-specific histone demethylase 1A (Homo sapiens, UniProt O60341)
Experiment: In Vitro Enzyme Inhibition Activity Assay
Protocol: The purpose of this experiment was to test the in vitro inhibitory activity of the compounds against LSD1. The human recombinant LSD1 protein used in the experiment was purchased from Active Motif, and the enzyme level activity testing assay of LSD1 was performed using the Lance Ultra LSD1 Histone H3 Lysine 4 Demethylase Assay Kit (PerkinElmer). Tris-buffer (50 mMTris-HCl, 50 mMNaCl, 0.01% Tween-20, 1 mM DTT, 10 μM FAD, 10% glycerol, pH 9.0) was first prepared, and after preparation, the LSD1 fractions required for test were placed in this buffer and incubated for one hour at room temperature; the fractions included 4 μL of substrate solution ([…] Bio-H3K4me2, 1-24aa), 4 μL of enzyme solution (4 nM LSD1), and 2 μL of inhibitor in a 384-well microplate. After these operations, another 5 μL of assay mixture containing Eu-labeled H3K4me0 antibody and ULight-Streptavidin anti-biotin protein was added to the system, after which the fluorescence intensity of the components to be tested was detected by using Envision (PerkinElmer) in TR-FRET mode (excitation wavelength of 320 nm, emission wavelength of 620 nm). The test was repeated a total of three times to minimize errors. The final IC50 data were calculated by the software GraphPad Prism 5, and finally the sigmoidal dose-response (variable slope) method was used to obtain the fitted curve.

With `N#Cc1ccc(-c2nc(NC[C@H]3CCNC3)nc3ccc(-c4ccccc4C(F)(F)F)cc23)cc1F` [US20250042862, Compound 40] the IC50 was less than 30 nM.
Compound `N#Cc1ccc(-c2nc(NC[C@H]3CCNC3)nc3ccc(-c4ccccc4Cl)cc23)cc1F` [US20250042862, Compound 42] has an IC50 of less than 30 nM.
